Species on record: Bos taurus
Assay: Inhibitory effect by measuring the ATP-dependent [Ca2+] uptake in membranes isolated from bovine cerebellum
Assay type: functional

Structure (SMILES) | IC50 (Bos taurus, Cerebellum) [pM] | IC50 [pM]
C/C=C(\C)C(=O)O[C@H]1C(C)=C2[C@H]([C@@H]1OC(=O)CCCCCCC)[C@@](C)(OC(C)=O)C[C@H](OC(=O)CCC)[C@@]1(O)[C@H]2OC[C@@]1(C)O | 180 | 
CC=C(C)C(=O)O[C@H]1C(C)=C2[C@H]([C@@H]1OC(=O)CCCCCCC)[C@@](C)(OC(C)=O)C[C@H](OC(=O)CCC)[C@@]1(O)[C@H]2OC(=O)[C@@]1(C)O [THAPSIGARGIN] | 264 | 
C/C=C(/C)C(=O)O[C@H]1C(C)=C2[C@H]([C@@H]1OC(=O)CCCCCCC)[C@@](C)(OC(C)=O)C[C@H](OC(=O)CCC)[C@@]1(O)[C@H]2OC(=O)[C@@]1(C)O [THAPSIGARGIN] |  | 170

From ChEMBL document CHEMBL1127257, “Ca2+-ATPase inhibitory activity of a locked analogue of thapsigargin” (Bioorg Med Chem Lett, 1994)
